The source of these data is patent publication US20260007681A1, “INDOLE DERIVATIVES AS ESTROGEN RECEPTOR DEGRADERS” (REGENTS OF THE UNIVERSITY OF MICHIGAN, priority 2022, published 2026).

The assay deals with ER (Homo sapiens (Human), UniProt P03372). Nature of the assay: Western blot analysis (Compounds B1-B278). Format: cell-based. The conditions noted are these: ER degradation by traditional Western blot; DC50 classes. The method, boiled down: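 Relative target-protein levels come from densitometry of immunoblots, normalized to GAPDH. Lysates from treated cells were prepared in RIPA buffer (pH 7.6) containing protease inhibitors, and equal protein amounts, checked by BCA, were separated on 10% gels and blotted onto PVDF.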
ER, sequence (P03372 whole entry): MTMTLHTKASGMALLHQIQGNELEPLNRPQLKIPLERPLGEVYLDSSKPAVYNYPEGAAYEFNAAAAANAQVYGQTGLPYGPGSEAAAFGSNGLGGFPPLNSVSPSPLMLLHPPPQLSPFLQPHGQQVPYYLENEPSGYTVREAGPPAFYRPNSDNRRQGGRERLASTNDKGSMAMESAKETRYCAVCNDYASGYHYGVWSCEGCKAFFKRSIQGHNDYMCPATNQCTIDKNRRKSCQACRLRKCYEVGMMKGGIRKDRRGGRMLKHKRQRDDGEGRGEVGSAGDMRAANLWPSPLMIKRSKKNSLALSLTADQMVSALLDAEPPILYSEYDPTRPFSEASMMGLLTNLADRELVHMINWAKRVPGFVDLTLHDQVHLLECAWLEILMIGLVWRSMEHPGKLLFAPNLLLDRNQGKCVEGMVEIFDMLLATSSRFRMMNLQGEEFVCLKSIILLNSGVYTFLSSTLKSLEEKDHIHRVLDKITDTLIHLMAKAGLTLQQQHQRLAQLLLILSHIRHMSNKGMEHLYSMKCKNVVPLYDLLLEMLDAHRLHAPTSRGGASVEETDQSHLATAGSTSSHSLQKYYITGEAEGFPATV
In the case of `COc1cc([C@H]2CC[C@@H](C(=O)N3CCC(N4Cc5cc6c(cc5C4)C(=O)N(C4CCC(=O)NC4=O)C6=O)CC3)CC2)ncc1[C@@H]1c2[nH]c3ccccc3c2C[C@@H](C)N1CC(F)F` (stereo partly drawn) [Compound B107, 6-(1-((1S,4s)-4-(5-((1R,3R)-2-(2,2-difluoroethyl)-3-methyl-2,3,4,9-tetrahydro-1H-pyrido[3,4-b]indol-1-yl)-4-methoxypyridin-2-yl)cyclohexane-1-carbonyl)piperidin-4-yl)-2-(2,6-dioxopiperidin-3-yl)-6,7-dihydropyrrolo[3,4-f]isoindole-1,3(2H,5H)-dione], the “Traditional Western Degradation Potency” value was “C (“C”: >100 nM)”.

For `COc1cc([C@H]2CC[C@H](C(=O)N3CCC(N4Cc5cc6c(cc5C4)C(=O)N(C4CCC(=O)NC4=O)C6=O)CC3)CC2)ncc1[C@@H]1c2[nH]c3ccccc3c2C[C@@H](C)N1CC(F)F` (stereo partly drawn) [Compound B108, 6-(1-((1R,4r)-4-(5-((1R,3R)-2-(2,2-difluoroethyl)-3-methyl-2,3,4,9-tetrahydro-1H-pyrido[3,4-b]indol-1-yl)-4-methoxypyridin-2-yl)cyclohexane-1-carbonyl)piperidin-4-yl)-2-(2,6-dioxopiperidin-3-yl)-6,7-dihydropyrrolo[3,4-f]isoindole-1,3(2H,5H)-dione], the “Traditional Western Degradation Potency” value is on record as “C (“C”: >100 nM)”.

With `C[C@@H]1Cc2c([nH]c3ccccc23)[C@@H](c2ncc(C3=CCC(C(=O)N4CCC(N5Cc6cc7c(cc6C5)C(=O)N(C5CCC(=O)NC5=O)C7=O)CC4)CC3)cc2F)N1CC(F)F` (stereo partly drawn) [Compound B109, 6-(1-(4-(6-((1S,3R)-2-(2,2-difluoroethyl)-3-methyl-2,3,4,9-tetrahydro-1H-pyrido[3,4-b]indol-1-yl)-5-fluoropyridin-3-yl)cyclohex-3-ene-1-carbonyl)piperidin-4-yl)-2-(2,6-dioxopiperidin-3-yl)-6,7-dihydropyrrolo[3,4-f]isoindole-1,3(2H,5H)-dione], the “Traditional Western Degradation Potency” value was “C (“C”: >100 nM)”. For `C[C@@H]1Cc2c([nH]c3ccccc23)[C@@H](c2c(F)cc(C3CCC(C(=O)N4CCC(N5Cc6cc7c(cc6C5)C(=O)N(C5CCC(=O)NC5=O)C7=O)CC4)CC3)cc2F)N1CC(F)(F)CO` (stereo partly drawn) [Compound B110, 6-(1-(4-(4-((1R,3R)-2-(2,2-difluoro-3-hydroxypropyl)-3-methyl-2,3,4,9-tetrahydro-1H-pyrido[3,4-b]indol-1-yl)-3,5-difluorophenyl)cyclohexane-1-carbonyl)piperidin-4-yl)-2-(2,6-dioxopiperidin-3-yl)-6,7-dihydropyrrolo[3,4-f]isoindole-1,3(2H,5H)-dione] the value was “C (“C”: >100 nM)”; for `COc1cc([C@H]2CC[C@H](C(=O)N3CCC(N4Cc5cc6c(cc5C4)C(=O)N(C4CCC(=O)NC4=O)C6=O)CC3)CC2)ccc1[C@@H]1c2[nH]c3ccccc3c2C[C@@H](C)N1CC(F)F` (stereo partly drawn) [Compound B111, 6-(1-((1R,4r)-4-(4-((1R,3R)-2-(2,2-difluoroethyl)-3-methyl-2,3,4,9-tetrahydro-1H-pyrido[3,4-b]indol-1-yl)-3-methoxyphenyl)cyclohexane-1-carbonyl)piperidin-4-yl)-2-(2,6-dioxopiperidin-3-yl)-6,7-dihydropyrrolo[3,4-f]isoindole-1,3(2H,5H)-dione], “B (“B”: 10-100 nM)”; for `COc1cc([C@H]2CC[C@@H](C(=O)N3CCC(N4Cc5cc6c(cc5C4)C(=O)N(C4CCC(=O)NC4=O)C6=O)CC3)CC2)ccc1[C@@H]1c2[nH]c3ccccc3c2C[C@@H](C)N1CC(F)F` (stereo partly drawn) [Compound B112, 6-(1-((1S,4s)-4-(4-((1R,3R)-2-(2,2-difluoroethyl)-3-methyl-2,3,4,9-tetrahydro-1H-pyrido[3,4-b]indol-1-yl)-3-methoxyphenyl)cyclohexane-1-carbonyl)piperidin-4-yl)-2-(2,6-dioxopiperidin-3-yl)-6,7-dihydropyrrolo[3,4-f]isoindole-1,3(2H,5H)-dione], “C (“C”: >100 nM)”. For `COc1nc(C2CCC(C(=O)N3CCC(N4Cc5cc6c(cc5C4)C(=O)N(C4CCC(=O)NC4=O)C6=O)CC3)CC2)ccc1[C@@H]1c2[nH]c3ccccc3c2C[C@@H](C)N1CC(F)F` (stereo partly drawn) [Compound B113, 6-(1-(4-(5-((1R,3R)-2-(2,2-difluoroethyl)-3-methyl-2,3,4,9-tetrahydro-1H-pyrido[3,4-b]indol-1-yl)-6-methoxypyridin-2-yl)cyclohexane-1-carbonyl)piperidin-4-yl)-2-(2,6-dioxopiperidin-3-yl)-6,7-dihydropyrrolo[3,4-f]isoindole-1,3(2H,5H)-dione] the value was “C (“C”: >100 nM)”; for `COc1cc(C2CCC(C(=O)N3CCC(N4Cc5cc6c(cc5C4)C(=O)N(C4CCC(=O)NC4=O)C6=O)CC3)CC2)cnc1[C@@H]1c2[nH]c3ccccc3c2C[C@@H](C)N1CC(F)F` (stereo partly drawn) [Compound B115, 6-(1-(4-(6-((1S,3R)-2-(2,2-difluoroethyl)-3-methyl-2,3,4,9-tetrahydro-1H-pyrido[3,4-b]indol-1-yl)-5-methoxypyridin-3-yl)cyclohexane-1-carbonyl)piperidin-4-yl)-2-(2,6-dioxopiperidin-3-yl)-6,7-dihydropyrrolo[3,4-f]isoindole-1,3(2H,5H)-dione], “C (“C”: >100 nM)”; for `C[C@@H]1Cc2c([nH]c3ccccc23)[C@@H](c2cnc(N3CC4(CCC(CN5Cc6cc7c(cc6C5)C(=O)N(C5CCC(=O)NC5=O)C7=O)CC4)C3)nc2)N1CC(C)(C)F` (stereo partly drawn) [Compound B184, 2-(2,6-dioxopiperidin-3-yl)-6-((2-(5-((1R,3R)-2-(2-fluoro-2-methylpropyl)-3-methyl-2,3,4,9-tetrahydro-1H-pyrido[3,4-b]indol-1-yl)pyrimidin-2-yl)-2-azaspiro[3.5]nonan-7-yl)methyl) 6,7-dihydropyrrolo[3,4-f]isoindole-1,3(2H,5H)-dione], “C (“C”: >100 nM)”. For `C[C@@H]1Cc2c([nH]c3ccccc23)[C@@H](c2cnc(N3CC4(CCC(CN5Cc6cc7c(cc6C5)C(=O)N(C5CCC(=O)NC5=O)C7=O)CC4)C3)nc2)N1CC(F)F` (stereo partly drawn) [Compound B185, 6-((2-(5-((1R,3R)-2-(2,2-difluoroethyl)-3-methyl-2,3,4,9-tetrahydro-1H-pyrido[3,4-b]indol-1-yl)pyrimidin-2-yl)-2-azaspiro[3.5]nonan-7-yl)methyl)-2-(2,6-dioxopiperidin-3-yl)-6,7-dihydropyrrolo[3,4-f]isoindole-1,3(2H,5H)-dione], the “Traditional Western Degradation Potency” value was “C (“C”: >100 nM)”. On to `C[C@@H]1Cc2c([nH]c3ccccc23)[C@@H](c2cnc(N3CCC4(CC3)CC(CN3Cc5cc6c(cc5C3)C(=O)N(C3CCC(=O)NC3=O)C6=O)C4)nc2)N1CC(C)(C)F` (stereo partly drawn) [Compound B186, 2-(2,6-dioxopiperidin-3-yl)-6-((7-(5-((1R,3R)-2-(2-fluoro-2-methylpropyl)-3-methyl-2,3,4,9-tetrahydro-1H-pyrido[3,4-b]indol-1-yl)pyrimidin-2-yl)-7-azaspiro[3.5]nonan-2-yl)methyl)-6,7-dihydropyrrolo[3,4-f]isoindole-1,3(2H,5H)-dione], for which the “Traditional Western Degradation Potency” value is on record as “C (“C”: >100 nM)”. Turning to `C[C@@H]1Cc2c([nH]c3ccccc23)[C@@H](c2cnc(N3CCC4(CC3)CC(CN3Cc5cc6c(cc5C3)C(=O)N(C3CCC(=O)NC3=O)C6=O)C4)nc2)N1CC(F)F` (stereo partly drawn) [Compound B187, 6-((7-(5-((1R,3R)-2-(2,2-difluoroethyl)-3-methyl-2,3,4,9-tetrahydro-1H-pyrido[3,4-b]indol-1-yl)pyrimidin-2-yl)-7-azaspiro[3.5]nonan-2-yl)methyl)-2-(2,6-dioxopiperidin-3-yl)-6,7-dihydropyrrolo[3,4-f]isoindole-1,3(2H,5H)-dione], the “Traditional Western Degradation Potency” value is on record as “B (“B”: 10-100 nM)”.

Take `C[C@@H]1Cc2c([nH]c3ccccc23)[C@@H](c2c(F)cc(N3CCC(CN4CCC(C(=O)N5Cc6cc7c(cc6C5)C(=O)N(C5CCC(=O)NC5=O)C7=O)CC4)C3)cc2F)N1CC(F)F` (stereo partly drawn) [Compound B188, 6-(1-((1-(4-((1R,3R)-2-(2,2-difluoroethyl)-3-methyl-2,3,4,9-tetrahydro-1H-pyrido[3,4-b]indol-1-yl)-3,5-difluorophenyl)pyrrolidin-3-yl)methyl)piperidine-4-carbonyl)-2-(2,6-dioxopiperidin-3-yl)-6,7-dihydropyrrolo[3,4-f]isoindole-1,3(2H,5H)-dione]: the “Traditional Western Degradation Potency” value is “A (“A”: <10 nM)”. For `C[C@@H]1Cc2c([nH]c3ccccc23)[C@@H](c2c(F)cc(N3CCCC(CN4CCC(C(=O)N5Cc6cc7c(cc6C5)C(=O)N(C5CCC(=O)NC5=O)C7=O)CC4)C3)cc2F)N1CC(F)F` (stereo partly drawn) [Compound B189, 6-(1-((1-(4-((1R,3R)-2-(2,2-difluoroethyl)-3-methyl-2,3,4,9-tetrahydro-1H-pyrido[3,4-b]indol-1-yl)-3,5-difluorophenyl)piperidin-3-yl)methyl)piperidine-4-carbonyl)-2-(2,6-dioxopiperidin-3-yl)-6,7-dihydropyrrolo[3,4-f]isoindole-1,3(2H,5H)-dione] the value was “B (“B”: 10-100 nM)”; for `C[C@@H]1Cc2c([nH]c3ccccc23)[C@@H](c2c(F)cc(N3CCCC(CN4CCC(N5Cc6cc7c(cc6C5)C(=O)N(C5CCC(=O)NC5=O)C7=O)CC4)C3)cc2F)N1CC(F)F` (stereo partly drawn) [Compound B190, 6-(1-((1-(4-((1R,3R)-2-(2,2-difluoroethyl)-3-methyl-2,3,4,9-tetrahydro-1H-pyrido[3,4-b]indol-1-yl)-3,5-difluorophenyl)piperidin-3-yl)methyl)piperidin-4-yl)-2-(2,6-dioxopiperidin-3-yl)-6,7-dihydropyrrolo[3,4-f]isoindole-1,3(2H,5H)-dione], “B (“B”: 10-100 nM)”.
